# Source: patent US8828926B2, “Uses of natriuretic peptide constructs” (priority 2010, dated 2014)
# Positions of bridges follow the written chain, without caps; N, C: chain ends. Non-standard residues stand in square brackets, D forms with d. Residues, ends and D or L forms follow the SMILES beside them. *: point of attachment. X1 = N=C(N)NCCC[C@H]1C(=O)N[C@@H](C(N)=O)CN1*; dNle = CCCC[C@@H](N)C(=O)O; Heptanoyl = CCCCCCC(=O)*
# Key:
# [1] = system: human lung tissues; experiment: Human precision-cut lung slice relaxation, precontracted with carbachol; assay type: cell-based
# [2] = target: human NEP (hNEP) (Homo sapiens, UniProt P08473); experiment: Metabolism by human neutral endopeptidase (hNEP) solution at 37° C.; assay type: in vitro ADME; conditions: substrate concentration 50 μM; for remaining at 2 h, 50 μM: read-out: percent remaining after 2-hour exposure to hNEP
# human NEP (hNEP), sequence (P08473 whole entry): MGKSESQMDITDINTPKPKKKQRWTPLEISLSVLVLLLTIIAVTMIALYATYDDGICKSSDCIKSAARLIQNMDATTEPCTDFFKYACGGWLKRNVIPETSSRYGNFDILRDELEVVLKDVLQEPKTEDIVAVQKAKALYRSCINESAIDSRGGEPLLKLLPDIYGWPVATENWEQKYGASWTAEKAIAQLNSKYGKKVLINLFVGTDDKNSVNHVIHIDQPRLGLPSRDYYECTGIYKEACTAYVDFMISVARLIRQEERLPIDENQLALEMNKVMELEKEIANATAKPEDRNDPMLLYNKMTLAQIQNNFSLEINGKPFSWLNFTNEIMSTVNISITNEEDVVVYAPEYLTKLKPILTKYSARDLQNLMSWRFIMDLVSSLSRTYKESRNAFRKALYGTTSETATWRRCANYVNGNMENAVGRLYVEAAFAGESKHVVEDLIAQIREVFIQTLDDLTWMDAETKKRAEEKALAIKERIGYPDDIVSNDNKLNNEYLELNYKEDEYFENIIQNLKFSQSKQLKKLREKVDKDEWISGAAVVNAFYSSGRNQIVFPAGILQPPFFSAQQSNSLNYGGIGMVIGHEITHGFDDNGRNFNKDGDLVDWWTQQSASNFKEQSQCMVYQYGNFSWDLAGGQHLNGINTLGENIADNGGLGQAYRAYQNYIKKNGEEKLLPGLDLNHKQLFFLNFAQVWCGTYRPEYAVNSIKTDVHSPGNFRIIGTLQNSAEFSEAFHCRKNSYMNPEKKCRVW
# Protocol: . Pharmacol. 191:341-366 (2009)). A comparison was made between the sensitivity of the construct of formula IV and ANP to metabolism by human NEP (hNEP) (substrate concentration 50 μM). After 2-hour exposure to hNEP solution at 37° C., there was minimal degradation of the construct of formula IV (92% remaining; n=5). In contrast, under these conditions ANP was about 90% degraded after 60 minutes and 100% after 2-hours (n=4). […] Results are shown in FIG. 1; results in FIG. 1 are expressed as the percent of the starting material, and are either the mean of 1-5 experiments or, where error bars are shown, are the mean±standard deviation.
# [3] = Potter et al. 2009; cited from earlier work
# [4] = system: bronchoconstrictor response evoked by methacholine; experiment: Methacholine-evoked bronchoconstriction in anesthetized guinea pigs, intratracheal delivery; assay type: in vivo, guinea pigs (Dunkin Hartley); conditions: 1000 μg/kg IT, 15 minutes, methacholine 10 μg/mL
# Protocol: Studies were conducted with intratracheal (IT) delivery of the construct of formula IV in anesthetized guinea pigs (Dunkin Hartley) challenged with the muscarinic receptor agonist, methacholine. […] The inhibition was maintained for all doses after the 60 minute pretreatment time. The duration of action of 10 μg/kg and 100 μg/kg doses of the construct of formula IV was explored (FIGS. 4C and 4D). For both doses the inhibition extended to 120 minutes post-administration, although it was reduced, with inhibitory effect absent after 240 minutes pretreatment.
smiles,measurement,setting,value
CC(C)NCC(O)c1ccc(O)c(O)c1 (stereo not shown) [Isoprenaline],relaxation of carbachol-induced contraction,"[1]; 100 μM, human lung slices",about 75%
same,Isoproterenol-mediated broncho-dilatation,"[1]; in the absence of the construct of formula IV, n=4",88.2±3.4%
CCCCCCC(=O)N[C@H]1CSSC[C@@H](C(=O)N[C@@H](Cc2ccc(O)cc2)C(=O)N2C[C@H](C(N)=O)NC(=O)[C@@H]2CCCNC(=N)N)NC(=O)[C@H](CO)NC(=O)[C@H]([C@@H](C)CC)NC(=O)[C@H](CCCNC(=N)N)NC(=O)[C@H](CC(=O)O)NC(=O)[C@@H](CCCC)NC(=O)[C@H](CCCNC(=N)N)NC(=O)CNC(=O)[C@@H](C)NC(=O)[C@H](Cc2ccccc2)NC(=O)[C@H](Cc2c[nH]cn2)NC1=O [construct of formula IV] (Heptanoyl-CHF[dA]GR[dNle]DRISCY-X1; disulfide 1-12),"remaining at 2 h, 50 μM",[2],92%
CC[C@H](C)[C@@H]1NC(=O)[C@H](CCCNC(=N)N)NC(=O)[C@H](CC(=O)O)NC(=O)[C@H](CC(C)C)NC(=O)[C@H](CCCCN)NC(=O)[C@H](CC(C)C)NC(=O)CNC(=O)[C@H](Cc2ccccc2)NC(=O)[C@@H](NC(=O)CNC(=O)[C@H](CCCCN)NC(=O)[C@H](CO)NC(=O)[C@H](CC(C)C)NC(=O)CN)CSSC[C@@H](C(=O)O)NC(=O)CNC(=O)[C@H](CC(C)C)NC(=O)CNC(=O)[C@H](CO)NC(=O)[C@H](CCSC)NC(=O)[C@H](CO)NC(=O)CNC1=O [hCNP],"remaining at 1 h, 50 μM","[2]; 60 min, read-out: percent remaining after 60-min incubation with hNEP",39%
same,"remaining at 2 h, 50 μM",[2],1%
same,reported human plasma half-life,[3],about 2 minutes
CC(C)(C)NCC(O)c1ccc(O)c(CO)c1 (stereo not shown) [salbutamol],maximum inhibition of bronchoconstrictor response,[4],87±2%
